Results reported in patent US4994448A, “Condensed quinolinium and isoquinolinium derivatives” (Egis Gyogyszergyar, priority 1987, dated 1991).
Where two headings read alike, the source gives them in different places.

Key:
[1] = Acute toxicity on mice; conditions: mouse, in vivo, po
Experimental: White mice belonging to the CFLP strain (body weight 18-22 g; both male and female) are used, 10 animals for each dose. The test compound is administered orally in a volumen of 20 ml/kg. After treatment the animals are observed for a period of 7 days. The animals are kept in a plastic cage, at room temperature. The animals get tap water and standard mouse fodder ad libitum.

[2] = tested on: Tetrabenazine ptosis; test: Tetrabenazine antagonism on mice (ptosis); format: in vivo; conditions: for ED50: Mus musculus, oral, 30 min before Tetrabenazine 50 mg./kg. i.p.
Experimental: The test is carried out by the method of Hoffmeister et al. adapted to mice. For each does groups of 10 animals are used. The mice of the test groups are treated orally with the test compound while the controld animals receive the corresponding vehicle p.o. After 30 minutes a 50 mg./kg. i.p. dose of Tetrabenazine is administered. The animals with closed eye-lids are counted after 30, 60, 90 and 120 minutes, respectively, in each group. The average ptosis is calculated on the basis of all measurements in each group and expressed as the percentage of the deviation (ptosis) from the control group.

[3] = tested on: Hexobarbital narcosis; test: Hexobarbital narcosis on mice; format: in vivo; conditions: po; for ED50: Mus musculus, read-out: Hexobarbital narcosis ED50; for Therapeutical index (Hexobarbital narcosis): mouse, in vivo
Experimental: Groups consisting of 6 mice are used for each dose. The animals are treated orally with the test compound (the control group receives a vehicle), whereby sleeping is induced 1 hour later by administering a 40 mg./kg. i.v. dose of Hexobarbital both to the test and control groups.
Animals which have a sleeping time more than 2.5 times longer than that of the control group are considered to show a positive reaction. ED50 values are calculated from the thus-transofrmed data.

[4] = tested on: writhing (acetic acid); test: Analgesic effect, acetic acid writhing test on mice; format: in vivo; conditions: for ED50: Mus musculus, oral, 60 min pre-treatment, 0.75% acetic acid i.p.; for Therapeutical index (writhing test): mouse, in vivo, po
Experimental: Method: acetic acid "writhing effect" on mice
To mice weighing 20-25 g. a 0.75% acetic acid solution is administered intraperitoneally in a volume of 20 ml./kg. According to the method of Neubold the characteristic writhing reactions are counted for each animal between the 5th and 10th minute and the total writhing number obtained for this 5 minutes' period is expressed as the percentage of the control group. The test compound is administered orally, the test is carried out by using a pre-treatment period of 60 minutes and 10 animals are used for each dose.

[5] = tested on: Reserpin ptosis; test: Reserpin ptosis antagonism on mice; format: in vivo; conditions: for ED50: Mus musculus, sc, 1 h, compound given 60 min after reserpine 6 mg./kg. s.c.
Experimental: The average ptosis is calculated on the basis of all measurements in each group and expressed as the percentage of the deviation (ptosis) from the control group. Groups consisting of 10 mice are used for each does. The animals are treated with a 6 mg./kg. s.c. dose of reserpine, the test compound is administered after 60 minutes. The control animals receive a vehicle. The animals with closed eye-lids are counted in each group after 60 and 120 minutes. The evaluation is carried out as disclosed in the ptosis test No. 3.

[6] = tested on: gastrointestinal peristalsis; test: Antiperistaltic effect on mice (gastrointestinal peristalsis, carbon suspension, method of Stickney et al.); format: in vivo, mice (white, male and female); conditions: for ED50: Mus musculus, read-out: Antiperistaltic effect ED50; for Therapeutical index (antiperistaltic effect): mouse, in vivo
Experimental: The […] effect is tested according to the method of […] et al. on white male and female mice weighing 20-25 g. […] The groups consist of 10 mice for each dose. The animals of the control group are treated at the same time under identical conditions with a vehicle. Twenty minutes after the administration of the carbon suspension the mice are sacrificed. The total length of the intestines and that of the intestines filled with carbon is measured.

[7] = 7 days observation, Litchfield-Wilcoxon
[8] = 60 min before 10% carbon suspension

With `Cc1n[n+]2ccc3ccccc3c2nc1N` [Example 38, 2-Amino-3-methyl-as-triazino[3,2-a]isoquinolinium ethanesulfonate] the LD50 at 168 h [1] was 380 mg/kg, the ED50 [2] was 9.2 mg/kg and the “Therapeutical index TI (Tetrabenazine ptosis antagonism)” value [2] was 41.3. For the same compound, the ED50 [3] was 17 mg/kg, the “Therapeutical index (Hexobarbital narcosis)” value [3] was 22.4 and the ED50 [4] was 65 mg/kg. The “Therapeutical index (writhing test)” value [4] was 5.8.
`OC1C=N[n+]2ccc3ccccc3c2N1` (stereo not shown) [Example 16, 2-Hydroxy-1,2-dihydro-as-triazino[3,2-a]isoquinolinium ethanesulfonate] showed an LD50 at 168 h [1, 7] of 650 mg/kg.
`CC(=O)Nc1ccc(O)cc1` [Paracetamol, reference compound] showed an ED50 [4] of 180 mg/kg.
Work on `Cc1n[n+]2ccc3ccccc3c2nc1NCCCN(C)C` [Example 5, 2-(3-Dimethylaminopropylamino)-3-methyl-as-triazino[3,2-a]isoquinolinium ethanesulfonate] yielded an LD50 at 168 h [1, 7] of 2000 mg/kg.
With `c1ccc2c(c1)cc[n+]1ncc(N3CCOCC3)nc21` [Example 2, 2-Morpholino-as-triazino[3,2-a]isoquinolinium ethanesulfonate] the LD50 at 168 h [1, 7] was 450 mg/kg.
In the case of `Cc1n[n+]2ccc3ccccc3c2nc1NCCO` [Example 36, 2-(2-Hydroxyethylamino)-3-methyl-as-triazino[3,2-a]isoquinolinium ethanesulfonate], the LD50 at 168 h [1] is reported as 1400 mg/kg, the ED50 [2] is reported as 20 mg/kg and the “Therapeutical index TI (Tetrabenazine ptosis antagonism)” value [2] is reported as 70.0.
Work on `Cc1n[n+]2c(ccc3ccccc32)[nH]c1=O` [Example 21, 2-Methyl-3(4H)-oxo-as-triazino[3,2-a]quinoline-11-ium ethanesulfonate] yielded an LD50 at 168 h [1, 7] of 700 mg/kg.
In the case of `CN(C)CCC=C1c2ccccc2CCc2ccccc21` [Amitriptylin, reference compound], the ED50 [2] is reported as 12 mg/kg, the “Therapeutical index TI (Tetrabenazine ptosis antagonism)” value [2] is reported as 18.7 and the ED50 [5] is reported as 65 mg/kg. For the same compound, the “Therapeutical index TI (Reserpin ptosis antagonism)” value [5] was 3.5.
With `Cc1n[n+]2c3ccccc3ccc2n(C)c1=O` [Example 17, 2,4-Dimethyl-3(4H)-oxo-as-triazino[3,2-a]isoquinoline-11-ium ethanesulfonate] the LD50 at 168 h [1] was 1000 mg/kg, the ED50 [5] was 40 mg/kg and the “Therapeutical index TI (Reserpin ptosis antagonism)” value [5] was 25.0.
Compound `O=c1cn[n+]2c(ccc3ccccc32)[nH]1` [Example 26, 3(4H)-Oxo-as-triazino[3,2-a]quinoline-11ium ethanesulfonate] has an LD50 at 168 h [1, 7] of 450 mg/kg.
With `c1ccc(CNc2nc3c4ccccc4cc[n+]3nc2-c2ccccc2)cc1` [Example 8, 2-Benzylamino-3-phenyl-as-triazino[3,2-a]isoquinolinium ethanesulfonate] the LD50 at 168 h [1] was 340 mg/kg, the ED50 [5] was 31 mg/kg and the “Therapeutical index TI (Reserpin ptosis antagonism)” value [5] was 11.0.
In the case of `CC1=N[n+]2ccc3ccccc3c2NC1(C)O` (stereo not shown) [Example 1, 2,3-Dimethyl-2-hydroxy-1,2-dihydro-as-triazino[3,2-a]isoquinolinium ethanesulfonate], the LD50 at 168 h [1] is reported as 440 mg/kg, the ED50 [4] is reported as 60 mg/kg and the “Therapeutical index (writhing test)” value [4] is reported as 7.3.
In the case of `Cc1n[n+]2ccc3ccccc3c2nc1NCc1ccccc1` [Example 40, 2-Benzylamino-3-methyl-as-triazino[3,2-a]isoquinolinium ethanesulfonate], the LD50 at 168 h [1] is reported as 90 mg/kg, the ED50 [6, 8] is reported as 6.5 mg/kg and the “Therapeutical index (antiperistaltic effect)” value [6] is reported as 13.85.
With `Cc1n[n+]2ccc3ccccc3c2[nH]c1=O` [Example 9, 3-Methyl-2(1H)-oxo-as-triazino[3,2-a]isoquinolinium-5-ium-ethanesulfonate] the LD50 at 168 h [1] was 900 mg/kg, the ED50 [3] was 56 mg/kg and the “Therapeutical index (Hexobarbital narcosis)” value [3] was 16.1. The ED50 [4] was 107 mg/kg and the “Therapeutical index (writhing test)” value [4] was 8.4.
With `O=c1nc2c3ccccc3ccn2nc1-c1ccccc1` [Example 11, 3-Phenyl-as-triazino[3,2-a]isoquinoline-2(5H)-one] the LD50 at 168 h [1] was 2000 mg/kg, the ED50 [5] was 33 mg/kg and the “Therapeutical index TI (Reserpin ptosis antagonism)” value [5] was 60.6. The ED50 [6, 8] was roughly 220 mg/kg and the “Therapeutical index (antiperistaltic effect)” value [6] was 9.1.
`OCCNc1nc2c3ccccc3cc[n+]2nc1-c1ccccc1` [Example 37, 2-(2-Hydroxyethylamino)-3-phenyl-as-triazino[3,2-a]isoquinolinium ethanesulfonate] showed an LD50 at 168 h [1, 7] of 750 mg/kg.
With `Cn1c(=O)c(-c2ccccc2)n[n+]2c3ccccc3ccc12` [Example 18, 2-Phenyl-4-methyl-3(4H)-oxo-as-triazino[3,2-a]quinoline-11-ium ethanesulfonate] the LD50 at 168 h [1] was 2000 mg/kg, the ED50 [5] was 40 mg/kg and the “Therapeutical index TI (Reserpin ptosis antagonism)” value [5] was 50.0.
In the case of `OCCNc1cn[n+]2ccc3ccccc3c2n1` [Example 3, 2-(2-Hydroxyethylamino)-as-triazino[3,2-a]isoquinolinium ethanesulfonate], the LD50 at 168 h [1] is reported as 500 mg/kg, the ED50 [2] is reported as 50 mg/kg and the “Therapeutical index TI (Tetrabenazine ptosis antagonism)” value [2] is reported as 10.0.
`Nc1nc2c3ccccc3cc[n+]2nc1-c1ccccc1` [Example 39, 2-Amino-3-phenyl-as-triazino[3,2-a]isoquinolinium ethanesulfonate] gave an LD50 at 168 h [1, 7] of 500 mg/kg.
With `CN(C)CCCNc1nc2c3ccccc3cc[n+]2nc1-c1ccccc1` [Example 6, 2-(3-Dimethylaminopropylamino)-3-phenyl-as-triazino[3,2-a]isoquinolinium ethanesulfonate] the LD50 at 168 h [1] was 850 mg/kg, the ED50 [3] was 35 mg/kg and the “Therapeutical index (Hexobarbital narcosis)” value [3] was 24.3. For the same compound, the ED50 [4] was 120 mg/kg and the “Therapeutical index (writhing test)” value [4] was 7.1.
With `OCCNc1nc2ccc3ccccc3[n+]2nc1-c1ccccc1` [Example 25, 3-(2-Hydroxyethylamino)-2-phenyl-as-triazino[3,2-a]quinolinium ethanesulfonate] the LD50 at 168 h [1, 7] was 500 mg/kg.
Compound `Cc1n[n+]2c(ccc3ccccc32)nc1NCCO` [Example 24, 2-Methyl-3(2-hydroxyethylamino)as-triazino[3,2-a]quinolinium ethanesulfonate] has an LD50 at 168 h [1, 7] of 130 mg/kg.
Compound `Cc1n[n+]2ccc3ccccc3c2nc1N1CCOCC1` [Example 34, 2-Morpholino-3-methyl-as-triazino[3,2-a]isoquinolinium ethanesulfonate] has an LD50 at 168 h [1, 7] of 1200 mg/kg.
For `COc1ccc(Cc2nccc3cc(OC)c(OC)cc23)cc1OC` [Papaverin, reference compound], the ED50 [6] was greater than 280 mg/kg and the “inhibition (antiperistaltic effect)” value ([6]; printed beside ED50 above 280 mg./kg.) was 36.1%.
For `O=c1[nH]c2ccc3ccccc3[n+]2nc1-c1ccccc1` [Example 27, 2-Phenyl-3(4H)-oxo-as-triazino[3,2-a]quinoline-11ium ethanesulfonate], the ED50 [4] was 23.8 mg/kg and the “Therapeutical index (writhing test)” value [4] was 42.0.
In the case of `CCCC(C)(COC(N)=O)COC(N)=O` [Meprobamate, reference compound], the ED50 [3] is reported as 260 mg/kg and the “Therapeutical index (Hexobarbital narcosis)” value [3] is reported as 4.2.
